# In patent publication US20210261621A1, “Preparation of Dilipid Polymixins and Use Thereof as Antimicrobial Adjuvants” (priority 2018, published 2021):
# “And” between values parts separate entries of the source, which are not always exact repeats. Identical values can stand only once. Like-named read-outs stand apart in the source and are kept apart here. Positions of bridges follow the written chain, without caps; N, C: chain ends. Non-standard residues stand in square brackets, D forms with d. Residues, ends and D or L forms follow the SMILES beside them. *: point of attachment. Acetyl(1-adamantyl) = O=C(CC12CC3CC(CC(C3)C1)C2)*; Dab = NCC[C@H](N)C(=O)O
# Experiments:
# [1] = test system: P. aeruginosa CANWARD-2011 96846; type: cell-based, Pseudomonas aeruginosa
# Procedure, shortened: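 Broth microdilution per CLSI in Mueller-Hinton broth, with 2-fold serial compound dilutions and inoculum of approximately 5×10^5 CFU/mL from overnight cultures. Plates were incubated 18 h at 37° C.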
# P. aeruginosa PAO1 = test system: P. aeruginosa PAO1; design: MICDrug / MICDrug in combo / MIC of adjuvant in combo: unit not given beside the values
structure (smiles),measurement,setting,value
"CC(C)C[C@@H]1NC(=O)[C@@H](Cc2ccccc2)NC(=O)[C@H](CCN)NC(=O)[C@@H](NC(=O)[C@H](CCN)NC(=O)[C@@H](NC(=O)[C@H](CCNC(=O)CC23CC4CC(CC(C4)C2)C3)NC(=O)CC23CC4CC(CC(C4)C2)C3)[C@@H](C)O)CCNC(=O)[C@H]([C@@H](C)O)NC(=O)[C@H](CCN)NC(=O)[C@H](CCN)NC1=O [Compound 4, Diadamantane Acetic Acid (Di-Adamantyl) Polymyxin] ({Acetyl(1-adamantyl)}-[Dab](Acetyl(1-adamantyl))T[Dab][Dab][Dab][dF]L[Dab][Dab]T; lactam 4-C)",MIC,[1],32 µg/mL
same,"MIC of adjuvant alone (MIC1, MIC2, MIC3, MIC4, MIC5, MICPMBN)","P. aeruginosa PAO1; adjuvant alone, one value per checkerboard, in µg/mL",16 and 8
same,Interpretation,P. aeruginosa PAO1; combination with Aztreonam,"Additive (An FIC index of ≤0.5, 0.5<x≤4, or >4 denotes for synergistic, additive or antagonistic interaction, respectively)"
same,Interpretation,P. aeruginosa PAO1; combination with Ceftazidime,"Additive (An FIC index of ≤0.5, 0.5<x≤4, or >4 denotes for synergistic, additive or antagonistic interaction, respectively)"
same,Interpretation,P. aeruginosa PAO1; combination with Chloramphenicol,"Additive (An FIC index of ≤0.5, 0.5<x≤4, or >4 denotes for synergistic, additive or antagonistic interaction, respectively)"
same,Interpretation,P. aeruginosa PAO1; combination with Ciprofloxacin,"Additive (An FIC index of ≤0.5, 0.5<x≤4, or >4 denotes for synergistic, additive or antagonistic interaction, respectively)"
same,Interpretation,P. aeruginosa PAO1; combination with Clindamycin,"Additive (An FIC index of ≤0.5, 0.5<x≤4, or >4 denotes for synergistic, additive or antagonistic interaction, respectively)"
same,Interpretation,P. aeruginosa PAO1; combination with Doripenem,"Additive (An FIC index of ≤0.5, 0.5<x≤4, or >4 denotes for synergistic, additive or antagonistic interaction, respectively)"
same,Interpretation,P. aeruginosa PAO1; combination with Doxycycline,"Additive (An FIC index of ≤0.5, 0.5<x≤4, or >4 denotes for synergistic, additive or antagonistic interaction, respectively)"
same,Interpretation,P. aeruginosa PAO1; combination with Fosfomycin,"Additive (An FIC index of ≤0.5, 0.5<x≤4, or >4 denotes for synergistic, additive or antagonistic interaction, respectively)"
same,Interpretation,P. aeruginosa PAO1; combination with Gentamicin,"Additive (An FIC index of ≤0.5, 0.5<x≤4, or >4 denotes for synergistic, additive or antagonistic interaction, respectively)"
same,Interpretation,P. aeruginosa PAO1; combination with Linezolid,"Additive (An FIC index of ≤0.5, 0.5<x≤4, or >4 denotes for synergistic, additive or antagonistic interaction, respectively)"
same,Interpretation,P. aeruginosa PAO1; combination with Meropenem,"Additive (An FIC index of ≤0.5, 0.5<x≤4, or >4 denotes for synergistic, additive or antagonistic interaction, respectively)"
same,Interpretation,P. aeruginosa PAO1; combination with Minocycline,"Additive (An FIC index of ≤0.5, 0.5<x≤4, or >4 denotes for synergistic, additive or antagonistic interaction, respectively)"
same,Interpretation,P. aeruginosa PAO1; combination with Moxifloxacin,"Additive (An FIC index of ≤0.5, 0.5<x≤4, or >4 denotes for synergistic, additive or antagonistic interaction, respectively)"
same,Interpretation,P. aeruginosa PAO1; combination with Novobiocin,"Additive (An FIC index of ≤0.5, 0.5<x≤4, or >4 denotes for synergistic, additive or antagonistic interaction, respectively)"
same,Interpretation,P. aeruginosa PAO1; combination with Piperacillin,"Additive (An FIC index of ≤0.5, 0.5<x≤4, or >4 denotes for synergistic, additive or antagonistic interaction, respectively)"
same,Interpretation,P. aeruginosa PAO1; combination with Pleuromutilin,"Additive (An FIC index of ≤0.5, 0.5<x≤4, or >4 denotes for synergistic, additive or antagonistic interaction, respectively)"
same,Interpretation,P. aeruginosa PAO1; combination with Rifampicin,"Additive (An FIC index of ≤0.5, 0.5<x≤4, or >4 denotes for synergistic, additive or antagonistic interaction, respectively)"
same,Interpretation,P. aeruginosa PAO1; combination with Streptomycin,"Additive (An FIC index of ≤0.5, 0.5<x≤4, or >4 denotes for synergistic, additive or antagonistic interaction, respectively)"
same,Interpretation,P. aeruginosa PAO1; combination with Tobramycin,"Additive (An FIC index of ≤0.5, 0.5<x≤4, or >4 denotes for synergistic, additive or antagonistic interaction, respectively)"
same,Interpretation,P. aeruginosa PAO1; combination with Trimethoprim,"Additive (An FIC index of ≤0.5, 0.5<x≤4, or >4 denotes for synergistic, additive or antagonistic interaction, respectively)"
same,Interpretation,P. aeruginosa PAO1; combination with Vancomycin,"Additive (An FIC index of ≤0.5, 0.5<x≤4, or >4 denotes for synergistic, additive or antagonistic interaction, respectively)"
same,MIC of adjuvant in combo,P. aeruginosa PAO1; in combination with Aztreonam,(8)
same,MIC of adjuvant in combo,P. aeruginosa PAO1; in combination with Ceftazidime,(8)
same,MIC of adjuvant in combo,P. aeruginosa PAO1; in combination with Chloramphenicol,(4)
same,MIC of adjuvant in combo,P. aeruginosa PAO1; in combination with Ciprofloxacin,(0.25)
same,MIC of adjuvant in combo,P. aeruginosa PAO1; in combination with Clindamycin,(4)
same,MIC of adjuvant in combo,P. aeruginosa PAO1; in combination with Doripenem,(8)
same,MIC of adjuvant in combo,P. aeruginosa PAO1; in combination with Doxycycline,(4)
same,MIC of adjuvant in combo,P. aeruginosa PAO1; in combination with Fosfomycin,(4)
same,MIC of adjuvant in combo,P. aeruginosa PAO1; in combination with Gentamicin,(0.25)
same,MIC of adjuvant in combo,P. aeruginosa PAO1; in combination with Linezolid,(8)
same,MIC of adjuvant in combo,P. aeruginosa PAO1; in combination with Meropenem,(4)
same,MIC of adjuvant in combo,P. aeruginosa PAO1; in combination with Minocycline,(4)
same,MIC of adjuvant in combo,P. aeruginosa PAO1; in combination with Moxifloxacin,(4)
same,MIC of adjuvant in combo,P. aeruginosa PAO1; in combination with Novobiocin,(4)
same,MIC of adjuvant in combo,P. aeruginosa PAO1; in combination with Piperacillin,(0.25)
same,MIC of adjuvant in combo,P. aeruginosa PAO1; in combination with Pleuromutilin,(4)
same,MIC of adjuvant in combo,P. aeruginosa PAO1; in combination with Rifampicin,(4)
same,MIC of adjuvant in combo,P. aeruginosa PAO1; in combination with Streptomycin,(0.25)
same,MIC of adjuvant in combo,P. aeruginosa PAO1; in combination with Tobramycin,(0.25)
same,MIC of adjuvant in combo,P. aeruginosa PAO1; in combination with Trimethoprim,(8)
same,MIC of adjuvant in combo,P. aeruginosa PAO1; in combination with Vancomycin,(4)
same,adjuvant activity (potentiation of the panel of 21 antibiotics),P. aeruginosa PAO1; result in words,did not enhance the activity of any antibiotics
